Source: publication PMC2832585 (Bioorganic & medicinal chemistry, 2009)
Read-outs that look alike come from different tables or passages of the source.

Columns and labels:
[1] = test system: single ventricular myocytes; conditions: read-out: EC50(cardio); previous data; ref [10]; cited from earlier work
[2] = molecular target: human β2-AR (Homo sapiens, UniProt P07550); assay: β2-AR binding, [3H]CGP-12177 displacement on HEK cell membranes; conditions: relative to (R,R)-1 or (R,S)-1
[3] = test system: single ventricular myocytes; assay: Cardiomyocyte contractility model; assay type: cell-based, rat
[4] = molecular target: β1-AR (Rattus norvegicus, UniProt P18090); assay: β1-AR binding, [3H]CGP-12177 displacement on rat cortical membranes
β1-AR, sequence (P18090 whole entry): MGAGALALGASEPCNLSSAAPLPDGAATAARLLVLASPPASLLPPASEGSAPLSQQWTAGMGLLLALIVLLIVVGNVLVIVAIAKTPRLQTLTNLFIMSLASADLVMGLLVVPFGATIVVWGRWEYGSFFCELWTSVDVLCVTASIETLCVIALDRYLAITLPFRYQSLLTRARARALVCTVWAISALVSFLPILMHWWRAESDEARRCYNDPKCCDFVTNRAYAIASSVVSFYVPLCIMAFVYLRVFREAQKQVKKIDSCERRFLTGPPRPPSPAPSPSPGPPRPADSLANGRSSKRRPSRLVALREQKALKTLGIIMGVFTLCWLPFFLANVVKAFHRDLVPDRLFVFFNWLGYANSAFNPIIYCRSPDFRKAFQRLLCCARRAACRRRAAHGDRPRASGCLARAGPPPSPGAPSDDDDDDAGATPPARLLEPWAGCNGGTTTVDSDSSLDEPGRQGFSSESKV

human β2-AR, sequence (P07550 whole entry): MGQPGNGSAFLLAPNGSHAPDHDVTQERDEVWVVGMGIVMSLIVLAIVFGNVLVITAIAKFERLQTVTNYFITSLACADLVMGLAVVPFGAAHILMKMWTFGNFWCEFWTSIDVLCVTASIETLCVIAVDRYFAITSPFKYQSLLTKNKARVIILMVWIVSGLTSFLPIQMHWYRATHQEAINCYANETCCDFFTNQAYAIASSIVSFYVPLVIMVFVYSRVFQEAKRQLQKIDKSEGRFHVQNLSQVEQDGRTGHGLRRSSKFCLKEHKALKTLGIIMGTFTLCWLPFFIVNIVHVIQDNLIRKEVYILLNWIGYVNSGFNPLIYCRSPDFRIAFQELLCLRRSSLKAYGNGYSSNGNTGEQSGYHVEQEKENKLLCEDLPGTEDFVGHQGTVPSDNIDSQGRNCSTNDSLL

COc1ccc(C[C@@H](C)NC[C@@H](O)c2cc(O)cc(O)c2)cc1 [(S,R)-2]
EC50 [1]: 3160 nM

C[C@H](Cc1ccc(O)cc1)NC[C@@H](O)c1cc(O)cc(O)c1 [(S,R)-1]
EC50 [1]: 2340 nM

CC[C@@H](Cc1ccc(O)cc1)NC[C@H](O)c1cc(O)cc(O)c1 (racemic) [(R,S)-52]
Ki(β2-AR) fold greater than corresponding isomer of 1 [2]: 1.5 fold

C[C@H](Cc1ccc(O)cc1)NC[C@H](O)c1cc(O)cc(O)c1 [(R,R)-1, (R,R)-fenoterol]
EC50 ([3]; read-out: EC50cardio, cardiomyocyte contractility): 73 ± 18 nM

CC[C@H](Cc1ccc(O)cc1)NC[C@H](O)c1cc(O)cc(O)c1 [(R,R)-52, (R,R-(−)-5-(1-Hydroxy-2-(1-hydroxyphenyl)butan-2-ylamino)ethyl) benzene-1,3-diol]
Ki(β2-AR) fold greater than corresponding isomer of 1 [2]: ~ 4 fold | Ki(β1-AR) of (R,R)-isomer fold larger than (R,S)-isomer [4]: 4 fold | Ki(β1-AR) fold higher than corresponding isomer of 1 ([4]; relative to (R,R)-1 or (R,S)-1): 28 fold | antagonism of the activity of zinterol ([3]; cardiomyocyte contractility model, data not shown): did not antagonize | sensitivity of cardiomyocyte contractility activity to pertussis toxin ([3]; initial data, data not shown, indicates activation of both GS and Gi proteins): sensitive to pertussis toxin
